According to US20230173042A1, “METHODS OF TREATMENT WITH ASPARAGINASE” (JAZZ PHARMACEUTICALS IRELAND LTD., priority 2017, published 2023):
pIC50: −log10 of the molar value.

Legend:
Type in all cases: cell-based
[1] = test system: various cell lines; test: Pegcrisantaspase in combination with other compounds (Example 4, FIG. 2); details: compound in combination with Pegcrisantaspase
[2] = test system: AML; test: SynergyScreen of Pegcrisantaspase or Oncaspar with standard of care agents; details: agent combined with Pegcrisantaspase (FIG. 13A) or Oncaspar (FIG. 13B)
Excerpt: (§1) The special volcano plot of FIG. 9 relates compound sensitivity (as measured by ^10logIC50) to the presence of cancer hotspot mutations. […] The hotspot mutations were derived from statistical analyses of the recurrence patterns of mutations and copy number alterations in patients through separate studies. Axes and statistical analyses are identical to the volcano plot of FIG. 8. The cutoff p-level for significance is 0.32. […] Effect20 For determination of the effect of the compound on the activity of other anti-cancer agents in SynergyScreen™ experiments, a low, fixed concentration is used, corresponding to the concentration at which cell growth is inhibited by 20%. This concentration is determined using the dose-response curves of the single compounds. The concentration is the value on the x-as, corresponding to 80% viability of untreated at the y-axis.
(§2) See the tables depicted in FIG. 13A-FIG. 13B. Grey shading indicates synergistic activity. Light grey shading indicates one experiment and dark grey indicates two experiments. […] Example 5: mPEG-r-crisantaspase conjugates (Pegcrisantaspases) was tested in combination with ABT-737 against HL-60 cell line.

[3] = test system: KG-1; test: Combination (synergy) cell proliferation assay with pegcrisantaspase; details: anti-cancer agent in combination with pegcrisantaspase; KG-1 (AML)
Experimental: (§3) Plate preparation. The stocks of the mixtures and single agents were diluted in DMSO or 0.9% sodium chloride to generate a 7-points dose-response series. After further 31.6 times dilution in 20 mM sterile Hepes buffer pH 7.4 (reference compounds) or medium (pegcrisantaspase), 5 μl of pegcrisantaspase solution, and 5 μl of reference compound was added to 40 μl pre-plated cells in duplicate in a 384-well assay plate. The final DMSO concentration during incubation was 0.4% in all wells.
(§4) Cell proliferation assay. A cell assay stock was thawed and diluted in appropriate medium and dispensed in a 384-well plate, depending on the cell line used, at a concentration of 800-3200 cells per well in […]: i.e., DB: 800 cells per well; RL: 1000 cells per well; MV-4-11: 1600 cells per well; KG-1, HL-60 and HT 3200 cells per well. For each used cell line the cell density was optimized previously. The margins of the plate were filled with phosphate-buffered saline. Plated cells were incubated in a humidified atmosphere of 5% CO2 at 37° C. After 24 hours, 5 μl of pegcrisantaspase solution, and 5 μl of reference compound was added, and plates were further incubated for another 72 hours. After 72 hours, plates were cooled in 30 minutes to room temperature and 25 μl of ATPlite 1Step™ (PerkinElmer) solution was added to each well, and subsequently shaken for 2 minutes. After 5 minutes of incubation in the dark at room temperature, the luminescence was recorded on an Envision multimode reader (PerkinElmer).
(§5) Controls: t=0 signal. On a parallel plate, 40 μl cells were dispensed in quadruplicate and incubated in a humidified atmosphere of 5% CO2 at 37° C. After 24 hours, plates were cooled to room temperature in 30 minutes. 5 μl DMSO-containing Hepes buffer, 5 μl 0.9% sodium chloride-containing medium and 25 μl ATPlite 1Step™ solution were added and subsequently mixed for 2 minutes. Luminescence was measured after 10 minute incubation (=luminescencet=0) in the dark.
(§6) Cell growth control. The cellular doubling times of all cell lines are calculated from the t=0 hours and t=end growth signals of the untreated cells. If the doubling time is out of specification (0.5-2.0 times deviating from historic average) the assay is invalidated.
(§7) Maximum signals. On each 384-well plate, the maximum luminescence was recorded after incubation for 72 hours without compound in the presence of 0.4% DMSO. All equivalent wells (usually 14) were averaged. This average is defined as: luminescenceuntreated,t=72h. Dose response curves. Accurate single agent IC50s are needed for combination analysis. For each single agent its dose-response signal was fitted by a 4-parameter logistics curve using XL-fit 5 (IDBS software):
(§8) luminescence=bottom+(top-bottom)/(1+10^(logIC50−log[cpd])−hill))
(§9) [cpd] is the compound concentration tested. hill is the Hill-coefficient. Bottom and top are the asymptotic minimum and maximum of the curve. Combination Index (CI) determination. The CI is one of the most widely used quantitative indications of synergy. The CI evaluates the concentrations needed to achieve a fixed-effect. A CI of below 1 indicates synergy.
(§10) CI is defined for a certain percentage cell viability (V), which is the signal related to a non-exposed control: V=100%×luminescencetreated,t=72h/luminescenceuntreated,t=72h. The concentrations of the two compounds cpd1 and cpd2 needed to reach a certain percentage cell viability V in combination are then compared to the concentrations needed as single agents:
(§11) IC50,cpd1 would signify the IC50 of cpd1 alone. The CI is labelled by %-effect, to follow conventions, so CI75 signifies the CI at 25% viability Curve shift analysis. This analysis provides a visual confirmation of synergy^1. The concentrations of the mixtures of compounds 1 and 2 (cpd1 and cpd2), and the single agents, were expressed in terms of IC50 equivalents (in ‘units’ of IC50):
(§12) The dose-response signal was fitted by a 4-parameter logistics curve using XL-fit 5 (IDBS software)

[4] = test system: HT; test: as above; details: anti-cancer agent in combination with pegcrisantaspase; HT (DLBCL)
Experimental: as §3, §4, §5, §6, §7, §8, §9, §10, §11, §12

[5] = test system: RL; test: as above; details: anti-cancer agent in combination with pegcrisantaspase; RL (DLBCL)
Experimental: as §3, §4, §5, §6, §7, §8, §9, §10, §11, §12

[6] = test system: DB; test: as above; details: anti-cancer agent in combination with pegcrisantaspase; DB (DLBCL)
Experimental: as §3, §4, §5, §6, §7, §8, §9, §10, §11, §12

[7] = test system: HL-60 cell line; test: as above; details: for conclusion (synergy): anti-cancer agent in combination with pegcrisantaspase, HL-60 (AML)
Experimental: as §3, §4, §5, §6, §7, §8, §9, §10, §11, §12

[8] = test system: DLBCL; test: SynergyScreen of Pegcrisantaspase or Oncaspar with standard of care agents; details: agent combined with Pegcrisantaspase (FIG. 13A) or Oncaspar (FIG. 13B)
Excerpt: as §1, §2

SMILES	effect in AML when used with Pegcrisantaspase or Oncaspar [2]	conclusion (synergy) [3]	conclusion (synergy) [5]	conclusion (synergy) [6]	conclusion (synergy) [7]	effect in DLBCL when used with Pegcrisantaspase or Oncaspar [8]	further results
Nc1ccn([C@@H]2O[C@H](CO)[C@@H](O)[C@@H]2O)c(=O)n1 [cytarabine]	increased effect						potentiation of the effect by Pegcrisantaspase [1]: synergy
CC(C)C[C@H](NC(=O)[C@H](CCc1ccccc1)NC(=O)CN1CCOCC1)C(=O)N[C@@H](Cc1ccccc1)C(=O)N[C@@H](CC(C)C)C(=O)[C@@]1(C)CO1 [carfilzomib]	increased effect	synergy (CI < 1.0: synergy)	synergy (CI < 1.0: synergy)	synergy (CI < 1.0: synergy)	antagonism	increased effect	conclusion (synergy) [4]: no synergy/antagonism
CC(C)C[C@H](NC(=O)[C@H](Cc1ccccc1)NC(=O)c1cnccn1)B(O)O [bortezomib]	increased effect					increased effect	
Cn1c(=O)n(-c2ccc(C(C)(C)C#N)cc2)c2c3cc(-c4cnc5ccccc5c4)ccc3ncc21 [dactolisib]	increased effect	strong synergy (CI < 0.3: strong synergy)			synergy (CI < 1.0: synergy)	increased effect	
O=C(Cc1cccc(OC(F)(F)F)c1)Nc1ccc(CCCCc2nnc(NC(=O)Cc3ccccn3)s2)nn1 [CB-839]						increased effect	
CN(C)CC[C@H](CSc1ccccc1)Nc1ccc(S(=O)(=O)NC(=O)c2ccc(N3CCN(Cc4ccccc4-c4ccc(Cl)cc4)CC3)cc2)cc1[N+](=O)[O-] [ABT-737]	increased effect	strong synergy (CI < 0.3: strong synergy)	synergy (CI < 1.0: synergy)	synergy (CI < 1.0: synergy)	strong synergy (CI < 0.3: strong synergy)	increased effect	potentiation of the effect by Pegcrisantaspase [1]: synergy; conclusion (synergy) [4]: synergy (CI < 1.0: synergy); pIC50 ([7]; Homo sapiens, single agents, dose-response curves of FIG. 3, HL-60): 6.08; Emax ([7]; Homo sapiens, single agents, dose-response curves of FIG. 3, HL-60, read-out: maximal effect): 67%; pIC50 ([7]; Homo sapiens, therapeutic as single agent, HL-60, 72 hours): 5.92
CC1(C)CCC(CN2CCN(c3ccc(C(=O)NS(=O)(=O)c4ccc(NCC5CCOCC5)c([N+](=O)[O-])c4)c(Oc4cnc5[nH]ccc5c4)c3)CC2)=C(c2ccc(Cl)cc2)C1 [venetoclax]		strong synergy (CI < 0.3: strong synergy)	synergy (CI < 1.0: synergy)	synergy (CI < 1.0: synergy)	strong synergy (CI < 0.3: strong synergy)		conclusion (synergy) [4]: no synergy (CI = 1.0: no synergy)
C[C@]12C=CC(=O)C=C1CC[C@@H]1[C@@H]2[C@@H](O)C[C@@]2(C)[C@H]1CC[C@]2(O)C(=O)CO [prednisolone]			synergy (CI < 1.0: synergy)	no synergy (CI = 1.0: no synergy)		increased effect	
CO[C@H]1C[C@@H]2CC[C@@H](C)[C@@](O)(O2)C(=O)C(=O)N2CCCC[C@H]2C(=O)O[C@H]([C@H](C)C[C@@H]2CC[C@@H](OCCO)[C@H](OC)C2)CC(=O)[C@H](C)/C=C(\C)[C@@H](O)[C@@H](OC)C(=O)[C@H](C)C[C@H](C)/C=C/C=C/C=C/1C [everolimus]						increased effect	
CC[C@]1(O)C[C@H]2CN(CCc3c([nH]c4ccccc34)[C@@](C(=O)OC)(c3cc4c(cc3OC)N(C=O)[C@H]3[C@@](O)(C(=O)OC)[C@H](OC(C)=O)[C@]5(CC)C=CCN6CC[C@]43[C@@H]65)C2)C1 [vincristine]						increased effect	
COc1cccc2c1C(=O)c1c(O)c3c(c(O)c1C2=O)C[C@@](O)(C(C)=O)C[C@@H]3O[C@H]1C[C@H](N)[C@H](O)[C@H](C)O1 [daunorubicin]	increased effect						
